Assay results published in patent publication US7696129B2, “Substituted aromatic amide derivative, intermediate thereof, agrohorticultural insecticide containing thereof and method for the use thereof” (Nihon Nohyaku Co., Ltd., priority 2001, dated 2010).

Tests used:
Type in all cases: in vivo
[1] = test system: Common Cutworm (Spodoptera litura); assay: Test Example 2: insecticidal effect on common cutworm, cabbage leaf immersion; settings: cabbage leaf immersed about 30 seconds, second-instar larvae, 25° C., eight days after the inoculation; for mortality at 50 ppm: Spodoptera litura, 192 h, read-out: Test Example 2 (insecticidal effect, mortality criterion); for Test Example 2 (insecticidal effect, mortality criterion): 50 ppm
In short: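 Cabbage leaf pieces dipped about 30 seconds in 50 ppm compound dilution, air-dried, then infested with second-instar larvae and kept at 25° C. Dead and alive counted eight days after inoculation to give mortality; triplicate groups of 10 insects.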

[2] = test system: Smaller Tea Tortrix (Adxophyes sp.); assay: Test Example 3: insecticidal effect on smaller tea tortrix, tea leaf immersion; settings: 50 ppm, tea leaves immersed about 30 seconds, larvae, 25° C., humidity 70%, eight days after the inoculation
In short: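 Tea leaves dipped about 30 s in compound diluted to 50 ppm, air-dried, then infested with smaller tea tortrix larvae at 25°C and 70% humidity. Mortality counted 8 days post-inoculation and scored by a graded criterion; triplicate groups of 10 insects.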

[3] = test system: Diamond Back Moth (Plutella xylostella); assay: Test Example 4: controlling effect on diamond back moth with soil treatment (pricking-in hole treatment with granules); settings: 10 mgAI/plant, soil treatment at fix planting, about 50 eggs inoculated nine days after planting
Description: Controlling Effect on Diamond Back Moth (Plutella xylostella) with Soil Treatment of […] The pricking-in hole treatment was done with the granules containing each compound listed in Tables 4 according to the formulation examples of the present invention, at the fix planting of […] (cultivar; YR Seitoku). Nine days after the fix planting, about 50 eggs of diamond back moth (Plutella xylostella) were innoculated, then the number of the parasitic insects of diamond back moth (Plutella xylostella) was counted on the specified days after the innoculation.

[4] = test system: Diamond Back Moth (Plutella xylostella); assay: Test Example 1: insecticidal effect on diamond back moth, immersion of Chinese cabbage seedling with eggs; settings: seedling with eggs immersed about 30 seconds, 25° C., six days after the immersion; for mortality at 50 ppm: Plutella xylostella, 144 h, read-out: Test Example 1 (insecticidal effect, mortality criterion); for Test Example 1 (insecticidal effect, mortality criterion): 50 ppm
In short: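 Chinese cabbage seedlings bearing 2-day-old moth eggs dipped about 30 s in compound at 50 ppm, air-dried, held at 25° C. Hatched larvae counted six days later to give mortality; triplicate groups of 10 insects.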

| SMILES | mortality at 50 ppm [1] | Test Example 3 (insecticidal effect, mortality criterion) [2] | Number of the parasitic insects/three plants After 18 days [3] | Number of the parasitic insects/three plants After 25 days [3] | Number of the parasitic insects/three plants After 32 days [3] | mortality at 50 ppm [4] | Test Example 2 (insecticidal effect, mortality criterion) [1] | Test Example 1 (insecticidal effect, mortality criterion) [4] |
| --- | --- | --- | --- | --- | --- | --- | --- | --- |
| Cc1cc(C(C(F)(F)F)C(F)(F)F)ccc1NC(=O)c1cccc(I)c1C(=O)NC(C)(C)C[S+](C)[O-] (stereo not drawn) [Compound No. 5-29, N^2-(1,1-dimethyl-2-methylsulfinylethyl)-3-iodo-N^1-[2-methyl-4-{2,2,2-trifluoro-1-(trifluoromethyl)ethyl}phenyl]phthalamide] | 100% | A (Mortality 100%) | 0 parasitic insects/three plants | 0 parasitic insects/three plants | 0 parasitic insects/three plants | 100% | – | – |
| CSCC(C)(C)NC(=O)c1c(I)cccc1C(=O)Nc1ccc(C(C(F)(F)F)C(F)(F)F)cc1C [5-30] | – | A (Mortality 100%) | 0 parasitic insects/three plants | 3 parasitic insects/three plants | 22 parasitic insects/three plants | – | A (Mortality 100%) | A (Mortality 100%) |
| CSCC(C)(C)NC(=O)c1c(I)cccc1C(=O)Nc1ccc(C(C(F)(F)F)C(F)(F)F)cc1C [Compound No. 5-28, N^2-(1,1-dimethyl-2-methylthioethyl)-3-iodo-N^1-{2-methyl-4-[2,2,2-trifluoro-1-(trifluoromethyl)ethyl]phenyl}phthalamide] | 100% | A (Mortality 100%) | 0 parasitic insects/three plants | 5 parasitic insects/three plants | 14 parasitic insects/three plants | 100% | – | – |
| Cc1nc(C(C(F)(F)F)C(F)(F)F)ccc1NC(=O)c1cccc(I)c1C(=O)NC(C)(C)C[S+](C)[O-] (stereo not drawn) [8-12] | – | A (Mortality 100%) | – | – | – | – | A (Mortality 100%) | A (Mortality 100%) |
| CC(C)(CS(C)(=O)=O)NC(=O)c1c(I)cccc1C(=O)Nc1ccc(C(C(F)(F)F)C(F)(F)F)nc1Cl [8-6] | – | A (Mortality 100%) | – | – | – | – | D (Mortality 79-50%) | A (Mortality 100%) |
| Cc1c(NC(=O)c2cccc(I)c2C(=O)NC(C)C)ccc(C(C(F)(F)F)C(F)(F)F)c1F [5-60] | – | A (Mortality 100%) | – | – | – | – | A (Mortality 100%) | A (Mortality 100%) |
| CC(C)(CS(C)(=O)=O)NC(=O)c1c(I)cccc1C(=O)Nc1ccc(C(C(F)(F)F)C(F)(F)F)cc1C#N [5-59] | – | A (Mortality 100%) | – | – | – | – | A (Mortality 100%) | A (Mortality 100%) |
| CC(=O)NCC(C)(C)NC(=O)c1c(I)cccc1C(=O)Nc1ccc(C(C(F)(F)F)C(F)(F)F)cc1C [5-40] | – | A (Mortality 100%) | – | – | – | – | A (Mortality 100%) | A (Mortality 100%) |
